The text below walks through data of patent US8414870B2, “Benzylidene substituted 2,4-pentanedione compounds and use thereof as stabilizers” (Sytheon, Ltd., priority 2010, dated 2013).

For data set [1] the following is noted: cited from earlier work.
The nature of data set [2]: Hydroxyl radical antioxidant capacity. To be noted: method of Ou et al. 2002. An excerpt:
(§1) The antioxidant profile of the compound of Example 1, Synoxyl™ AS, was compared to two widely used commercial antioxidants, natural tocopherol and Oxynex® ST, a proprietary stabilizer based on Diethylhexyl Syringylidene Malonate (DESM), available form EMD Chemicals, Inc., of Gibbstown, N.J., USA. Several test methods were employed.

The nature of data set [3]: Peroxyl radical antioxidant capacity (ORAC). To be noted: method of Ou et al. 2001.
Description: as §1

Data set [4] in a line: Superoxide antioxidant capacity. As to conditions: method of Dubost et al. 2007.
Description: as §1

Data set [5] is described as follows: Photostabilization of water-soluble dyes, solar simulated light. Format: physicochemical. As to conditions: 0.05% in dye premix; solar simulated light ~40 hours (without stabilizer color lost within about 2 hours). The protocol:
The stabilizer compound identified as Synoxyl™ AS according to Example 1 was added to two dye premix formulations as set forth in Table 9 in order to evaluate its ability to reduce the amount of dye fading following exposure to solar simulated light. Control samples without the Synoxyl™ AS were also subjected to the same conditions.

Data set [6] in a line: Stabilization of colored shampoo, fluorescent light aging. Format: physicochemical. As to conditions: 0.4 g in 120 g shampoo, ambient temperature, 4 weeks (unmodified shampoo 21.6). The procedure: The stabilizer compound according to Example 1, Synoxyl™ AS, was added to a commercial shampoo formulation in order to evaluate its ability to reduce the amount of dye fading following exposure to fluorescent lighting. The sample was prepared by dissolving 0.4 g of Synoxyl™ AS in 5 ml of ethanol and then adding the solution to 120 g of Suave® Natural Fresh Mountain Strawberry Shampoo with agitation and agitated for 15 minutes. A sample of the unmodified shampoo and the modified shampoo are then placed into 20 ml glass scintillation vials. Both sets of vials were weathered under fluorescent light aging at ambient temperature for 4 weeks. The L*a*b coordinates before and after exposure are measured using X-Rite 938 Spectra-densitometer. Color change is expressed as Delta E (ΔE) which is calculated by the formula: ΔE=[(ΔL*)^2+(Δa*)^2+(Δb*)^2]^1/2

A short description of data set [7]: Peroxynitrile antioxidant capacity. To be noted: method of Zhang et al. 2007.
Description: as §1

Data set [8] can be described thus: Singlet oxygen antioxidant capacity. To be noted: method of Zhang et al. 2009.
Description: as §1

A short description of data set [9]: Photostabilization of avobenzone in ethanol test solution under sun simulator. Format: physicochemical. The protocol:
A comparative photostabilization study was conducted comparing the photostabilization efficacy of Synoxy™ AS with Octocrylene and Oxynex® ST in the stabilization of avobenzone. Samples for evaluation were prepared as follows:
Solutions of the photosensitive material and photostabilizer in ethanol were prepared, typically at a 1:1 to 1:5 weight ratio. A base test solution of 3% Avobenzone+5% Octyl salicylate+10% Homoslate in ethanol (the “Test Solution”) was made. Four additional solutions were prepared by adding 2% Synoxyl™ AS, 4% Octocrylene, 2% Oxynex® ST, and 2% Dehydrozingerone, respectively, to four aliquots of the Test Solution.
Samples of each solution were prepared as ultra h n films between two quartz plates so as to obtain a minimum of 90% light transmission over the entire spectrum range of non absorbing chromophores. […] Each sample was then irradiated under sun simulator (754 W/m^2, 2 MED/h, UV dose from 20 to 100 Jules/cm^2) for various durations and light absorption spectra recorded for each sample at given times. The maximal absorption band λmax of each solution was determined before and after irradiation. The amount of the photosensitive materials remaining in solution after irradiation was calculated as the ratio of theft two maximal absorptions.

Turning to `CC1=C(/C=C/C(C)=C/C=C/C(C)=C/C(=O)O)C(C)(C)CCC1` [tretinoin, all-trans-retinoic acid], the solubility in chloroform entry in data set [1] (chloroform) is reported as “slightly soluble”. Further, the solubility in ether result in data set [1] (ether) is “sparingly soluble”. In addition, the “solubility in methylene chloride” value in data set [1] (methylene chloride) is given as “soluble”.

For `COc1cc(C=C(C(C)=O)C(C)=O)ccc1O` [Synoxyl ™ AS, 3-(4-Hydroxy, 3-methoxybenzylidene)-2,4-pentanedione], the Hydroxyl in [2] is given as 47,180 Trolox equivalent/gm. Also, in data set [3], the “Peroxyl (ORAC)” value is reported as 14,363 Trolox equivalent/gm. In data set [4], the Superoxide is given as 1,042 Trolox equivalent/gm. The dye fading result in data set [5] was “did not fade”. Besides, the “change in color, Delta E” value in data set [6] turned out to be 12.3. The same compound registered a Peroxynitrile in [7] of 9 Trolox equivalent/gm. For the same compound, the Singlet oxygen in data set [8] was 13,283 Trolox equivalent/gm.

Turning to `COc1cc(/C=C/C(C)=O)ccc1O` [Dehydrozingerone], the “stabilization of photosensitive compounds” value in [9] is on record as “fails to stabilize photosensitive compounds”.

Regarding `CCCCC(CC)COC(=O)C(=Cc1cc(OC)c(O)c(OC)c1)C(=O)OCC(CC)CCCC` (stereo not shown) [Oxynex ® ST, Diethylhexyl Syringylidene Malonate], the Hydroxyl in data set [2] came to 0 Trolox equivalent/gm. The “Peroxyl (ORAC)” value in data set [3] was determined as 550 Trolox equivalent/gm. The compound further displayed a Superoxide in data set [4] of 0 Trolox equivalent/gm. In data set [7], this compound came in with a Peroxynitrile of 0 Trolox equivalent/gm. Further, in [8], the Singlet oxygen was 4,532 Trolox equivalent/gm.
